In data set [1] the target is T1, Beta-3 adrenergic receptor (Homo sapiens, UniProt P13945). Nature of the data set: Agonist activity was assessed by measurement of cAMP accumulation levels in CHO membranes expressing human beta-3 receptor. Type of data set: functional, cell membranes. (cAMP levels reflect the balance of adenylyl cyclase and phosphodiesterase activity.)
Target sequence in this assay (P13945 whole entry, looked up): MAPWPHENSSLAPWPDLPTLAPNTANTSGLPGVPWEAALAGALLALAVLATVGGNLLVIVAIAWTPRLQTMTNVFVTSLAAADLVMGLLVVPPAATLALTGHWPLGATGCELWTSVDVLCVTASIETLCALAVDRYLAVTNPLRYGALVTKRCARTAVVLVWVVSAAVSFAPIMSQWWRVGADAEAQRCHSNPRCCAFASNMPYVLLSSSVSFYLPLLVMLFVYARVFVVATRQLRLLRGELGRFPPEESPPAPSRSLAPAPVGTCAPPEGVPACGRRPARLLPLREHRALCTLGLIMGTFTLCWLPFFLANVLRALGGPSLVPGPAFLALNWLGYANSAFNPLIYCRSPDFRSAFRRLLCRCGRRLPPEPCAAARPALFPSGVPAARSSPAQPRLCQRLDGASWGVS
In data set [2] the target is T1, Beta-3 adrenergic receptor. Nature of the data set: Binding affinity to CHO cells expressing the cloned human beta-3 adrenergic receptor in the presence of [125I]iodocyanopindolol. Type of data set: cell-based.
Target sequence in this assay (P13945 whole entry): as the sequence (P13945 whole entry, looked up) above
The subject of data set [3] is ADRB2+ADRB3 (+). Nature of the data set: Tested for binding selectivity to beta3 adrenoceptor versus beta2 adrenoceptor.
The subject of data set [4] is ADRB1+ADRB3 (+). Nature of the data set: Tested for binding selectivity to beta3 adrenoceptor versus beta-1 adrenoceptor.
Data set [5] concerns the target Beta-1 adrenergic receptor (Cavia porcellus) (UniProt B0FL73). Nature of the data set: Beta1 receptor intrinsic activity is given as a percent of the maximal increase in the beating rate of an isolated spontaneously beating guinea pig atrium induced by isoproterenol. To be noted: Cardiac atrium. The class given is functional, tissue-based.
In data set [6] the target is T1, Beta-3 adrenergic receptor. Nature of the data set: Human beta-3 receptor agonist activity was assessed by measurement of cAMP accumulation levels in CHO cells expressing human beta-3 receptor. The class given is functional, cell-based.
Target sequence in this assay (P13945 whole entry, looked up): as above
The nature of data set [7]: Oral systemic bioavailability […] to african green monkey. Type of data set: ADME, organism-based. The conditions noted are these: cercopithecidae, in vivo, read-out: Bioavailabiility.
The nature of data set [8]: Tested for half life upon iv administration to african green monkey. Type of data set: ADME, organism-based. The conditions noted are these: cercopithecidae, in vivo.
Data set [9] is described as follows: Tested for Clearance upon iv administration to african green monkey. The class given is ADME, organism-based. The conditions noted are these: cercopithecidae, in vivo.
Data set [10] is described as follows: In vivo effective dose for lipolysis in african monkeys after iv administration. Type of data set: functional. The conditions noted are these: Cercopithecidae.
A short description of data set [11]: Dose that produced tachycardia in african green monkeys after iv administration. Type of data set: functional, Cercopithecidae.
The nature of data set [12]: Lowest dose required to produce statistically significant hypokalemia divided by ED50 for lipolysis in african green monkeys after 30 min (iv). The class given is functional, Cercopithecidae.
The nature of data set [13]: Lowest dose required to produce statistically significant tachycardia divided by ED50 for lipolysis in african green monkeys after 30 min (iv). Type of data set: functional, Cercopithecidae.
Data set [14] concerns the target Beta-3 adrenergic receptor (Mus musculus, UniProt P25962). Nature of the data set: Tested for binding affinity to murine Beta-3 adrenergic receptor.
Data set [15] concerns the target Beta-2 adrenergic receptor (Homo sapiens) (UniProt P07550). Nature of the data set: Tested for Intrinsic activity (IA) against adenylate cyclase in CHO cells transfected with human beta-2 adrenoceptor. Type of data set: functional, cell-based.
For data set [16], the species on record is Homo sapiens. Nature of the data set: Transdermal flux across human cadaver skin. The class given is functional.
Data set [17] in a line: Tested for volume of distribution upon iv administration to african green monkey. Type of data set: ADME, organism-based. To be noted: cercopithecidae, in vivo.
Data set [18] addresses Beta-1 adrenergic receptor (Homo sapiens) (UniProt P08588). Nature of the data set: Tested for Intrinsic activity (IA) against adenylate cyclase in CHO cells transfected with human beta-1 adrenoceptor. The class given is functional, cell-based.
Data set [19] is described as follows: Tested for lowest dose required to produce change in plasma potassium level divided by effective dose for lipolysis african green monkey 30 min after iv administration. Type of data set: functional, Cercopithecidae.
Data set [20] in a line: Tested for Lowest dose required to produce tachycardia divided by effective dose for lipolysis african green monkey 30 min after iv administration. The class given is functional, Cercopithecidae.
A short description of data set [21]: Tested for Lowest dose required to produce change in plasma potassium level divided by effective dose for lipolysis african green monkey 30 min after iv administration. Type of data set: functional, Cercopithecidae.

Beta-1 adrenergic receptor (Cavia porcellus), sequence (B0FL73 1-467): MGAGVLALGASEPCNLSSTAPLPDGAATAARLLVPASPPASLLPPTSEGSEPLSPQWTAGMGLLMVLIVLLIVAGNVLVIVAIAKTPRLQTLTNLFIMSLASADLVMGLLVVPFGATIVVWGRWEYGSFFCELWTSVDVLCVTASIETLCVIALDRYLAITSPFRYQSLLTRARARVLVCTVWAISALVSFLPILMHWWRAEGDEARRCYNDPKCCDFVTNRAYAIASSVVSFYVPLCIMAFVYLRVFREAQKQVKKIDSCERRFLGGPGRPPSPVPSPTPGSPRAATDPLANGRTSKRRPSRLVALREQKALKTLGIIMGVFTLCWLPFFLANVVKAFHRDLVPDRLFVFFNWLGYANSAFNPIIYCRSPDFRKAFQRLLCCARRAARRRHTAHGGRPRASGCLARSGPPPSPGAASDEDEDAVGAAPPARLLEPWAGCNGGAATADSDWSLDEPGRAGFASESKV
Beta-1 adrenergic receptor (Homo sapiens), sequence (P08588 whole entry, looked up): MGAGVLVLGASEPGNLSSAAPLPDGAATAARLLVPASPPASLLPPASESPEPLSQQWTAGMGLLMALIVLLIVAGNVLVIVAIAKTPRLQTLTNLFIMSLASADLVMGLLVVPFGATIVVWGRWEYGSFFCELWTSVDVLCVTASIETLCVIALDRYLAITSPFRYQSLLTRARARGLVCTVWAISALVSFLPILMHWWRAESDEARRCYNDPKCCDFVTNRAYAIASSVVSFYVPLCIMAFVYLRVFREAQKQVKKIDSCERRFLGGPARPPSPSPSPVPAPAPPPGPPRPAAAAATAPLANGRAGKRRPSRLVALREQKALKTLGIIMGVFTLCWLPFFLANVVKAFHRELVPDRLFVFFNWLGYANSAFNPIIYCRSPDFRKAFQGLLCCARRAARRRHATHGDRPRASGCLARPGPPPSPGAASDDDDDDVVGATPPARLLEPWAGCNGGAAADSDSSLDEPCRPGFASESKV
Beta-2 adrenergic receptor (Homo sapiens), sequence (P07550 whole entry, looked up): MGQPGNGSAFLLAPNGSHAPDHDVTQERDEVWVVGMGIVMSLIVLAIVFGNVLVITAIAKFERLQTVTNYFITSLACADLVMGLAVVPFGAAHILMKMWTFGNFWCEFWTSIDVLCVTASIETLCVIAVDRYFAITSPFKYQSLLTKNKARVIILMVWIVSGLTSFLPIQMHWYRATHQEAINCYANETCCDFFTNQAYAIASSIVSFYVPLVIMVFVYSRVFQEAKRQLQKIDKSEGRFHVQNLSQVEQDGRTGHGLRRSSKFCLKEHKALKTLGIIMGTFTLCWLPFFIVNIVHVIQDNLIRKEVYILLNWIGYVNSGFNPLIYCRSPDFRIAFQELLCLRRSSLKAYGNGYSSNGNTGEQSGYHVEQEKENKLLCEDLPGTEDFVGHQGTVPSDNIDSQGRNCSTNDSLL
Beta-3 adrenergic receptor (Mus musculus, UniProt P25962), sequence (P25962 whole entry): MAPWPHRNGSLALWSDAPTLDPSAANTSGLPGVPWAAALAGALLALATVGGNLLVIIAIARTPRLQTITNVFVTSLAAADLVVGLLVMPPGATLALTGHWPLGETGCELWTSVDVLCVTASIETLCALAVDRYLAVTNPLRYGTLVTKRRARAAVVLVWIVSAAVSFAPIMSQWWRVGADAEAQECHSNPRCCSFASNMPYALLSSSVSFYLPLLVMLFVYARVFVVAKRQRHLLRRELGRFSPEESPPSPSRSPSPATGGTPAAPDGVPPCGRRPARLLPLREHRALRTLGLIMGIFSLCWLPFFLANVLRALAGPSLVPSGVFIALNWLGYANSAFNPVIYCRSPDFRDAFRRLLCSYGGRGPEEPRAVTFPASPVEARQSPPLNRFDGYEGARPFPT

Take `CN(C)C(=O)c1ccc([C@@H](Cc2ccccc2)NC[C@H](O)c2ccc(O)c(NS(C)(=O)=O)c2)cc1`: the Intrinsic activity in data set [1] was 98%. Also, the Ki (in general, a measure of affinity in units of concentration, obtained from inhibition or displacement) in data set [2] worked out at 800 nM. For the same molecule, the results for the Selectivity ratio in [3] and in [4] were 0.4 and 25, respectively.
`CS(=O)(=O)Nc1cc([C@@H](O)CN[C@H](Cc2ccccc2)c2ccc(CC(N)=O)cc2)ccc1O`: the Intrinsic activity in data set [1] was found to be 106%. In addition, the Ki in [2] is 74 nM. The Selectivity ratio in data set [3] turned out to be 2; in [4], 17.
Consider `C[C@](Cc1ccccc1)(NC[C@H](O)c1ccc(O)c(NS(C)(=O)=O)c1)c1ccc(OC(F)F)cc1`, for which the Ki in data set [2] was 9 nM. For the same molecule, the Selectivity ratio in [3] worked out at 14; in data set [4], 12.
As for `CS(=O)(=O)Nc1cc([C@@H](O)CNC(Cc2ccccc2)c2ccc(OCc3ccccc3)cc2)ccc1O` (stereo partly specified), the Ki in [2] was 70 nM.
On to `CS(=O)(=O)Nc1cc(C(O)CNC(Cc2ccccc2)c2nccs2)ccc1O` (stereo unspecified), for which, in data set [1], the Intrinsic activity is 45%. In addition, the Ki in [2] stood at 2400 nM. The Selectivity ratio in data set [3] was 0.6; in data set [4] it was 4.
Regarding `CS(=O)(=O)Nc1cc([C@@H](O)CN[C@H](Cc2ccccc2)c2ccc(OC(F)F)c(OC(F)F)c2)ccc1O`, the Ki in data set [2] was 38 nM. The values for the Selectivity ratio in data set [3] and in [4] were 0.4 and 37, respectively.
For the molecule `COc1ccc([C@@H](Cc2ccccc2)NC[C@H](O)c2ccc(O)c(NS(C)(=O)=O)c2)c(OC)n1`, the Intrinsic activity in [1] was 94%. Moreover, the Ki in [2] is 15 nM. The molecule also displayed an Activity in [5] of 60%.
As to `CS(=O)(=O)Nc1cc(C(O)CNC(Cc2ccccc2)c2ccc3sccc3c2)ccc1O` (stereo unspecified), the Intrinsic activity in [1] turned out to be 90%. Also, the Ki in data set [2] was determined as 230 nM. For the same molecule, the Selectivity ratio in data set [3] turned out to be 2; in [4] it was 19.
On to `Cc1cc([C@@H](Cc2ccccc2)NC[C@H](O)c2ccc(O)c(NS(C)(=O)=O)c2)ccc1OC(F)F`, for which, in data set [2], the Ki came to 69 nM.
In the case of `CS(=O)(=O)Nc1cc(C(O)CNC(Cc2ccccc2)c2ccc(S(C)(=O)=O)cc2)ccc1O` (stereo unspecified), the Intrinsic activity in [1] was determined as 129%. Moreover, in data set [2], the Ki stood at 440 nM. Further, the Selectivity ratio in data set [3] turned out to be 3; in data set [4], 53.
Taken in the same sequence, the figures for `CNC(=O)c1ccc([C@@H](Cc2ccccc2)NC[C@H](O)c2ccc(O)c(NS(C)(=O)=O)c2)cc1` were 102%, 120 nM, 3 and 79.
For the molecule `CS(=O)(=O)Nc1cc([C@@H](O)CN[C@H](Cc2ccccc2)c2ccc(C(=O)NO)cc2)ccc1O`, the Intrinsic activity in data set [1] stood at 106%. The Ki in data set [2] was 147 nM. The Selectivity ratio in data set [3] is 4; in data set [4] it was 537.
Turning to `CS(=O)(=O)Nc1cc(C(O)CNC(Cc2ccccc2)c2ccc(F)cc2)ccc1O` (stereo unspecified), in data set [1], the Intrinsic activity amounted to 100%. Moreover, in data set [2], the Ki is 836 nM.
With `CS(=O)(=O)Nc1cc([C@@H](O)CNC(Cc2ccccc2)c2ccc(OC(F)(F)F)cc2)ccc1O` (stereo partly specified), the Ki in data set [2] was 210 nM. Also, the Selectivity ratio in data set [3] is 2; in [4] it was 25.
Taken in the same sequence, the figures for `CS(=O)(=O)Nc1cc([C@@H](O)CNC(Cc2ccccc2)c2ccc(OCC(F)(F)F)cc2)ccc1O` (stereo partly specified) were 84 nM, 1 and 83.
In the case of `CS(=O)(=O)Nc1cc(C(O)CNC(Cc2ccccc2)c2ccncc2)ccc1O` (stereo unspecified), the Intrinsic activity in data set [1] stood at 129%. Also, in data set [2], the Ki turned out to be 700 nM. The Selectivity ratio was found to be 8 in data set [3] and 30 in data set [4].
As for `CS(=O)(=O)Nc1cc([C@@H](O)CN[C@H](Cc2ccccc2)c2ccc(C(N)=O)cc2)ccc1O`, in data set [1], the Intrinsic activity is 108%. For the same molecule, the inhibitory constant (Ki) in data set [2] turned out to be 70 nM.
Regarding `COc1ccc([C@@H](Cc2ccccc2)NC[C@H](O)c2ccc(O)c(NS(C)(=O)=O)c2)c2ccccc12`, the Intrinsic activity in data set [1] is 85%. In addition, in [2], the Ki stood at 26 nM. This molecule also displayed an Activity in data set [5] of 22%. For the same molecule, the Selectivity ratio in [3] came out at 9; in data set [4] it was 46.
Consider `COc1ccc([C@@H](Cc2ccccc2)NC[C@H](O)c2ccc(O)c(NS(C)(=O)=O)c2)cn1`, for which, in data set [1], the Intrinsic activity stood at 101%. Further, the Ki in data set [2] came to 25 nM. For the same molecule, the Activity in data set [5] is 70%. Also, the Selectivity ratio in [3] came out at 30; in data set [4], 180.
Take `CS(=O)(=O)Nc1cc([C@@H](O)CN[C@H](Cc2ccccc2)c2ccc(C#N)cc2)ccc1O`: in data set [1], the Intrinsic activity stood at 107%. Moreover, in data set [2], the Ki is 210 nM. Moreover, the Selectivity ratio in data set [3] was 4; in [4] it was 30.
Consider `CS(=O)(=O)Nc1cc(C(O)CNC(Cc2ccccc2)c2ccccc2)ccc1O` (stereo unspecified), for which the Intrinsic activity in [6] stood at 133%. In data set [2], the Ki was determined as 360 nM. Besides, the Selectivity ratio turned out to be 3 in data set [3] and 15 in [4].
In the case of `CS(=O)(=O)Nc1cc([C@@H](O)CNC(Cc2ccccc2)c2ccc(Oc3ccccc3)cc2)ccc1O` (stereo partly specified), in data set [2], the Ki is 990 nM. Also, the Selectivity ratio was 0.5 in data set [3] and 4 in data set [4].
Take `CS(=O)(=O)Nc1cc([C@@H](O)CN[C@H](Cc2ccccc2)c2ccc(C(=O)O)cc2)ccc1O`: the Intrinsic activity in [1] stood at 123%. Also, the Ki in data set [2] came to 8600 nM. The Selectivity ratio in data set [3] amounted to 6; in data set [4] it was 17.
As for `CS(=O)(=O)Nc1cc([C@@H](O)CN[C@H](Cc2ccccc2)c2ccc(OC(F)F)cc2)ccc1O`, the bioavailability in data set [7] is 5%. Also, the half-life (usually the time in which the quantity being followed falls by half) in [8] is 7.3 h. In [9], the clearance (commonly a measure of how efficiently the substance is removed, as volume per time) is 36 mL/min/kg. For the same molecule, the 50% effective dose (ED50) (usually the dose that gives a 50% effect, or the effect in half of the subjects) in data set [10] came to 0.02 mg/kg. The same molecule yielded a Dose in data set [11] of 0.1 mg/kg. Further, the Margin before onset of hypokalemia in [12] was 25. This molecule showed a Margin before onset of tachycardia in [13] of 5. Further, the Intrinsic activity in data set [1] turned out to be 95%; in [15] it was 45%; in data set [18] it was 63%. Moreover, the figures for the Ki in [14] and in [2] were 4000 nM and 21 nM, respectively. The Activity in data set [5] was found to be 45%; in [16], 12 ug cm**-2 hr-1. For the same molecule, the Vd – broadly, a proportionality between amount in the body and measured concentration, not a real space – in data set [17] came out at 10 L/kg. Moreover, the Selectivity ratio in [3] stood at 5; in [4] it was 36.
`CS(=O)(=O)Nc1cc([C@@H](O)CN[C@H](Cc2ccccc2)c2ccc3c(c2)OCO3)ccc1O` had an ED50 in data set [10] of 0.02 mg/kg. The molecule also came in with a Dose in data set [11] of 0.1 mg/kg. In data set [19], the “Margin before onset of hypokalemia” value came out at 2. In addition, the “Margin before onset of tachycardia” value in [20] was 1. Also, in data set [1], the Intrinsic activity amounted to 94%. Besides, the Ki in data set [2] worked out at 8 nM. Moreover, the Activity in data set [5] was found to be 80%. Also, the results for the Selectivity ratio in data set [3] and in [4] were 8 and 52, respectively.
In turn, `CS(=O)(=O)Nc1cc([C@@H](O)CN[C@H](Cc2ccccc2)c2ccc(OC(F)F)c3ccccc23)ccc1O` displayed a median effective dose (ED50) in data set [10] of 0.25 mg/kg. Also, the “Margin before onset of hypokalemia” value in [21] was 2. In addition, the “Margin before onset of tachycardia” value in data set [20] came out at 2. In [1], the Intrinsic activity came to 100%. The Ki in [2] turned out to be 2 nM. This molecule also returned an Activity in [5] of 23%. The Selectivity ratio stood at 9 in data set [3] and 275 in [4].
On to `COC(=O)c1ccc([C@@H](Cc2ccccc2)NC[C@H](O)c2ccc(O)c(NS(C)(=O)=O)c2)cc1`, for which, in [1], the Intrinsic activity was found to be 98%. Further, in [2], the Ki was 85 nM.
With `CS(=O)(=O)Nc1cc(C(O)CNC(Cc2ccccc2)c2ccsc2)ccc1O` (stereo unspecified), the Intrinsic activity in data set [1] turned out to be 110%. Further, the Ki in [2] amounted to 129 nM. Further, the Selectivity ratio in data set [3] was 0.3; in [4], 1.
Turning to `CS(=O)(=O)Nc1cc([C@@H](O)CN[C@H](Cc2ccccc2)c2cccc3ccccc23)ccc1O`, the ED50 in data set [10] was found to be 0.25 mg/kg. In data set [19], the “Margin before onset of hypokalemia” value was 2. The “Margin before onset of tachycardia” value in [20] stood at 2. The Intrinsic activity in data set [1] came to 105%. Moreover, the Ki in data set [2] is 43 nM. For the same molecule, the Activity in data set [5] was 40%. Also, the Selectivity ratio in data set [3] was 6; in [4], 33.

These data come from ChEMBL document CHEMBL1133858, “BMS-196085: a potent and selective full agonist of the human beta(3) adrenergic receptor” (Bioorg Med Chem Lett, 2001).
